What was measured:
[1] = humans; compound found in bergamot and citrus essential oils; cited from earlier work
[2] = test system: female Anopheles quadrimaculatus mosquitoes; experiment: In vitro membrane feeder repellency assay, probing of treated collagen membranes (Example 2); type: in vivo; conditions: 20% DEET in ethanol, 25 μL on collagen membrane; twenty minutes; average ± SE, n = 5
Source text: (§1) A laboratory trial was required to evaluate the repellency of 1% Nootkatone against female Aedes aegypti, Culex quinquefasciatus, and Anopheles quadrimaculatus mosquitoes using an in vitro method.
(§2) Female adult laboratory reared Aedes aegypti, Culex quinquefasciatus, and Anopheles quadrimaculatus mosquitoes (susceptible) were obtained from Benzon Research in Carlisle, Pa. 250 mosquitoes were used per replicate (5 replicates per test, per species). Adult mosquitoes were 3-8 days old.
(§3) Nootkatone was diluted in ethanol and acetone (note that Nootkatone diluted in acetone was not tested against An. quadrimaculatus). A positive control consisting of 20% DEET in ethanol was prepared using stock solutions. Negative controls consisted of no treatment, and ethanol-only treatment.
(§4) The treatments were applied directly to prepared collagen membranes by pipetting 25 μL of the appropriate substance onto a membrane and spreading it evenly with the tip of the pipette.
(§5) Exposure container. A 30.5 cm×30.5 cm×30.5 cm rigid plastic frame supported by four, 4 cm high legs, with a sleeved entry on one side and a sliding door on the bottom.
(§6) Membrane feeder. Five wells (3 cm in diameter×8 mm in depth) in line on a hollow plastic block (6 cm wide×22 cm long×3 cm deep), which fits through the sliding door in the bottom of the exposure container. Hoses attached to each side of the block circulate heated water that is pumped from a water bath. The sliding door in the bottom of the exposure container covers and uncovers the wells in the membrane feeder, allowing mosquitoes to access the wells.
(§7) Test set-up. The membrane feeder was connected to a heated water bath, and warm water passed through the feeder via a circulating pump so that the wells were warmed to 89-95° F. Seventy-two (72) mg of ATP (disodium salt) were added to 26 mL of warmed citrated bovine blood, which was poured into the wells until they were completely full.
(§8) The collagen membranes were placed on vacuum greased wax paper for treatment. They were then treated as described above and left for five minutes to dry. After they dried, the membranes were placed over each of the wells (using vacuum grease as an adhesive), completely covering the blood.
(§9) Exposure to mosquitoes. The mosquitoes were released into the exposure container just prior to exposure to the membranes. The exposure container was then placed on the membrane feeder and the sliding door opened, allowing the mosquitoes to access the wells. The number of mosquitoes probing each membrane was recorded every two minutes for twenty minutes.
(§10) The above procedures were repeated until five replicates were completed. A new batch of 250 female mosquitoes and fresh blood were used for each replicate, and the wells were cleaned in between replicates. The position of the treatments was rotated for each replicate, so that each treatment was tested on each of the five wells.
(§11) Percent repellency was calculated for each replicate using the total number of probes with the following formula:
(§12) [formula] • where C=the total number of probes on the untreated well • and T=the total number of probes on the treated well
(§13) Average percent repellency and standard error were then calculated across all five replicates. Shapiro-Wilks tests were conducted to determine the normality of the data, based on total number of probes per replicate. Depending on normality, student t-tests (with concurrent F-tests for variance) or Mann-Whitney tests were then used to determine significance between the treatments.

[3] = test system: female Aedes aegypti mosquitoes; experiment: as above; type: in vivo; conditions: 20% DEET in ethanol, 25 μL on collagen membrane; twenty minutes; average ± SE, n = 5
Source text: as §1, §2, §3, §4, §5, §6, §7, §8, §9, §10, §11, §12, §13

[4] = test system: female Culex quinquefasciatus mosquitoes; experiment: as above; type: in vivo; conditions: 20% DEET in ethanol, 25 μL on collagen membrane; twenty minutes; average ± SE, n = 5
Source text: as §1, §2, §3, §4, §5, §6, §7, §8, §9, §10, §11, §12, §13

| SMILES | Phototoxicity [1] | Percent repellency [2] [%] | Percent repellency [3] [%] | Percent repellency [4] [%] |
| --- | --- | --- | --- | --- |
| COc1c2ccoc2cc2oc(=O)ccc12 [Bergapten, 5-methoxypsoralen] | causes phototoxicity in humans | – | – | – |
| CCN(CC)C(=O)c1cccc(C)c1 [DEET, N,N-Diethyl-meta-toluamide, reference compound] | – | 100.0 ± 0.0 | 99.4 ± 0.6 | 95.9 ± 4.1 |

— US11800867B2, “Methods of repelling biting arthropods, reducing pathogen spread and treating arthropod infestation” (priority 2016, dated 2023)
